Assay results published in US20120329675A1, “Testing of Biofilm for Anti-microbial Agent Susceptibility” (priority 2009, published 2012).
Read-outs that look alike come from different tables or passages of the source.

Tests used:
[1] = tested on: Pseudomonas aeruginosa (12 isolates from Cystic Fibrosis patients), planktonic bacteria; experiment: Planktonic susceptibility to antibiotics and antibiotic combinations (challenge plate), 24 h exposure; format: cell-based
[2] = tested on: Biofilms of Pseudomonas aeruginosa (12 isolates from Cystic Fibrosis patients); experiment: Biofilm susceptibility to antibiotics and antibiotic combinations (peg lid device), 24 h exposure; format: cell-based; conditions: count apparently resistant isolates of 12
[3] = tested on: P. aeruginosa ATCC 27853 biofilms; experiment: Peg lid biofilm susceptibility testing, qualitative (MBEC) and quantitative (MBIC, MBCB) end points; format: cell-based, Pseudomonas aeruginosa
Protocol: Qualitative end points. According to CLSI standards % the MIC is defined as the lowest concentration of an antimicrobial agent that prevents visible growth in the challenge medium after a set period of incubation. By contrast, the MBEC is defined as the lowest concentration of antimicrobial agent that prevents visible growth from occurring in the recovery medium used to collect biofilm cells^17. The MBEC can be determined using the protocol presented here, and is measured after the recovery medium has been incubated for a suitable period of time, the length of which depends on the growth rate of the microorganism. Quantitative end points. […] This definition can be extended to both planktonic and biofilm cells and these end points will be denoted as the MBCP and MBCB, respectively. […] The technique presented here allows the MBCB or MLCB to be calculated. Another measure of biofilm susceptibility that has been proposed is the minimum biofilm inhibitory concentration (MBIC)^38,39. Here, the MBIC is defined as the lowest concentration of an antimicrobial at which there is no time-dependent increase in biofilm MVCC when an early exposure time is compared with a later exposure time. The MBIC thus corresponds to the intersecting point of two concentration-dependent killing curves, and therefore, it is possible to distinguish between biofilm resistance and tolerance on the basis of VCC (FIG. 8). (iii) Read the OD of the microtiter plate wells at 650 nm using the microtiter plate reader and visually inspect the wells for growth. […] (viii) Score the spot plates for growth by colony counting using the same approach described in Step 8. Determine the mean VCCs and SD for the broth culture using equations (2) and (3). Calculate biofilm mean log-killing and SD using equation (5). […] The biofilms were then exposed to gentamicin for either 2 or 20 hours; qualitative and quantitative determinations of biofilm cell survival were then performed. For ease of understanding, we focus on a single antibiotic.

[4] = 12 isolates from Cystic Fibrosis patients, 24 hours exposure, count apparently resistant isolates of 12

Compound | Pseudomonas resistance to individual antibiotics and antibiotic combinations, Planktonic [1, 4] | Pseudomonas resistance to individual antibiotics and antibiotic combinations, Biofilm [2] | other results
NCC[C@H](O)C(=O)N[C@@H]1C[C@H](N)[C@@H](O[C@H]2O[C@H](CN)[C@@H](O)[C@H](O)[C@H]2O)[C@H](O)[C@H]1O[C@H]1O[C@H](CO)[C@@H](O)[C@H](N)[C@H]1O [AK, Amikacin] | 8 | 11 | 
C[C@H]1[C@H](NC(=O)/C(=N\OC(C)(C)C(=O)O)c2csc(N)n2)C(=O)N1S(=O)(=O)O [AZTR, Aztreonam] |  |  | Pseudomonas resistance to individual antibiotics and antibiotic combinations, Planktonic [1]: 0
CC(C)(O/N=C(\C(=O)N[C@@H]1C(=O)N2C(C(=O)[O-])=C(C[n+]3ccccc3)CS[C@H]12)c1csc(N)n1)C(=O)O [CFTZ, Ceftazidime] | 3 | 12 | 
O=C(O)c1cn(C2CC2)c2cc(N3CCNCC3)c(F)cc2c1=O [CIPRO, Ciprofloxacin] |  |  | Pseudomonas resistance to individual antibiotics and antibiotic combinations, Planktonic [1]: 4
C[C@@H](O)[C@H]1C(=O)N2C(C(=O)O)=C(SCCN=CN)C[C@H]12 [IMP] | 12 | 12 | 
NC[C@H]1O[C@H](O[C@H]2[C@H](O)[C@@H](O[C@H]3O[C@H](CO)[C@@H](O)[C@H](N)[C@H]3O)[C@H](N)C[C@@H]2N)[C@H](N)C[C@@H]1O [TB, Tobramycin] | 3 | 12 | 
gentamicin | 8 | 12 | MBCB ([3]; 2 h exposure): > 512 µg/mL; MBCB ([3]; 20 h exposure): 512 µg/mL; MBEC ([3]; exposed for 2 or 20 hours, biofilms grown in LB broth): > 512 µg/mL; MBIC ([3]; from VCC, 2 h compared with 20 h exposure): 128 µg/mL
